Measurements reported in ChEMBL document CHEMBL1828607, “N-Heteroaryl glycinamides and glycinamines as potent NPY5 antagonists” (Bioorg Med Chem Lett, 2011).
Converted amounts (≈) assume the structure as drawn.

Columns and labels:
in vivo [1] = conditions: Sprague-Dawley, rat, plasma, po, 10 mg/kg
Description: Drug level in femoral artery cannulated Sprague-Dawley rat plasma at 10 mg/kg, po after 1 hr by LC/MS/MS method

physchem [2] = conditions: buffer, pH 7.4
Description: Solubility of the compound at pH 7.4

physchem [3] = conditions: octanol/water
Description: Lipophilicity, log D of the compound

in vivo [4] = conditions: Sprague-Dawley, rat, brain, po, 10 mg/kg
Description: Drug level in femoral artery cannulated Sprague-Dawley rat brain at 10 mg/kg, po after 1 hr by LC/MS/MS method

in vivo [5] = conditions: Sprague-Dawley, rat, brain/plasma, po, 10 mg/kg
Description: Ratio of drug level in brain to plasma in femoral artery cannulated Sprague-Dawley rat at 10 mg/kg, po after 1 hr by LC/MS/MS method

Structure (SMILES) | concentration at 1 h (in vivo [1]) [nM] | solubility (physchem [2]) [µg/mL] | logD (physchem [3]) | concentration at 1 h (in vivo [4]) [nM] | Kp at 1 h (in vivo [5])
CN(C)S(=O)(=O)NC[C@H]1CC[C@H](NC(=O)CN2C(=O)CC(C)(C)Sc3ccccc32)CC1 | 1.5 | 440 (≈ 912 µM) | 2.4 | – | –
CC(C)S(=O)(=O)NC[C@H]1CC[C@H](NC(=O)CN2C(=O)CCc3cc(Cl)ccc32)CC1 | 879 | – | – | 16 | 0.02
CC(C)S(=O)(=O)NC[C@H]1CC[C@H](NC(=O)CN2CCOc3cc(Cl)ccc32)CC1 | 430 | – | – | 43 | 0.1
CC(C)S(=O)(=O)NC[C@H]1CC[C@H](NC(=O)CN2C(=O)COc3cc(Cl)ccc32)CC1 | 481 | – | – | 33 | 0.07
